Test results as given in PubChem BioAssay (NCI).
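Five concentrations, 48 hours, 96-well plates. TGI marks complete inhibition of growth.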

Assays:
Assay in all cases: NCI-60 cell line screen, 48 h
[1] = test system: MCF7 breast
[2] = test system: 786-0 renal
[3] = test system: KM12 colon
[4] = test system: OVCAR-4 ovarian
[5] = test system: MDA-MB-231 breast
[6] = test system: HCC-2998 colon
[7] = test system: BT-549 breast
[8] = test system: NCI/ADR-RES ovarian
[9] = test system: SK-MEL-5 melanoma
[10] = test system: MDA-MB-435
[11] = test system: HCT-116 colon
[12] = test system: SF-539 CNS
[13] = test system: TK-10 renal
[14] = test system: PC-3 prostate
[15] = test system: MALME-3M melanoma
[16] = test system: SF-268 CNS
[17] = test system: CCRF-CEM leukemia
[18] = test system: HOP-62 NSCLC
[19] = test system: SNB-75 CNS
[20] = test system: NCI-H522 lung

## Cc1ccc(Cc2nn(C)c(=O)n2N)cc1
[1]
  TGI: > 100 µM
[2]
  TGI: > 100 µM
[3]
  TGI: > 100 µM
[4]
  TGI: > 100 µM
[5]
  TGI: > 100 µM
[6]
  TGI: > 100 µM
[7]
  TGI: > 100 µM
[8]
  TGI: > 100 µM
[9]
  TGI: > 100 µM
[10]
  TGI: > 100 µM
[11]
  TGI: > 100 µM
[12]
  TGI: > 100 µM
[13]
  TGI: > 100 µM
[14]
  TGI: > 100 µM

## CCOC(=O)C1(C/C=C/CCl)CCCC1=O (centres undefined)
[1]
  TGI: 48.4 µM
[2]
  TGI: 49.4 µM
[3]
  TGI: 41.2 µM
[4]
  TGI: 93.7 µM
[15]
  TGI: 45.4 µM
[5]
  TGI: 42.5 µM
[16]
  TGI: 68.1 µM
[17]
  TGI: > 100 µM
[7]
  TGI: 40.8 µM
[8]
  TGI: 37.2 µM
[18]
  TGI: 45.1 µM
[19]
  TGI: 61.8 µM
[9]
  TGI: 33.9 µM
[10]
  TGI: 44 µM
[20]
  TGI: 47 µM
[11]
  TGI: 34.9 µM
[12]
  TGI: 40.6 µM
[13]
  TGI: 68.4 µM
[14]
  TGI: > 100 µM

## CC(=O)c1cc2c(s1)C(=O)c1sccc1C2=O
[1]
  TGI: 36.8 µM
[2]
  TGI: 0.421 µM
[3]
  TGI: 0.332 µM
[4]
  TGI: 0.195 µM
[15]
  TGI: 0.0313 µM
[5]
  TGI: 0.151 µM
[16]
  TGI: 0.0889 µM
[17]
  TGI: 0.0912 µM
[6]
  TGI: 0.392 µM
[7]
  TGI: 0.0321 µM
[8]
  TGI: 0.309 µM
[18]
  TGI: 0.0854 µM
[19]
  TGI: 0.0491 µM
[9]
  TGI: 0.0216 µM
[20]
  TGI: 0.0521 µM
[11]
  TGI: 0.489 µM
[12]
  TGI: 0.0348 µM
[13]
  TGI: 0.414 µM
[14]
  TGI: 0.133 µM

## C/C=C(/C)C(=O)O[C@H]1[C@H]2[C@@H]([C@@H](OC(C)=O)[C@H](C)C(=O)[C@@]34C[C@@H](C)C(=O)[C@]3(/C=C(\C)[C@H]1OC(C)=O)O4)C2(C)C
[1]
  TGI: 5.98 µM
[2]
  TGI: 5.5 µM
[3]
  TGI: 17.8 µM
[4]
  TGI: 14.2 µM
[5]
  TGI: 9.32 µM
[16]
  TGI: > 20 µM
[17]
  TGI: 3.35 µM
[6]
  TGI: 8.53 µM
[7]
  TGI: 5.84 µM
[8]
  TGI: 8.03 µM
[18]
  TGI: 12 µM
[19]
  TGI: > 20 µM
[9]
  TGI: 7.75 µM
[10]
  TGI: 6.6 µM
[20]
  TGI: 6.29 µM
[11]
  TGI: 5.99 µM
[12]
  TGI: 5.83 µM
[13]
  TGI: 7.61 µM
[14]
  TGI: 15.8 µM

## CC(C)(C)C1CCC2c3c([nH]c4ccccc34)C3C(=O)N(c4ccccc4Cl)C(=O)C3C2C1 (centres undefined)
[2]
  TGI: 27.7 µM
[15]
  TGI: 37.1 µM
[5]
  TGI: 24.6 µM
[16]
  TGI: 35.5 µM
[17]
  TGI: > 100 µM
[6]
  TGI: 11.2 µM
[7]
  TGI: 61.6 µM
[8]
  TGI: 44 µM
[18]
  TGI: 32.5 µM
[9]
  TGI: 28.7 µM
[10]
  TGI: > 100 µM
[11]
  TGI: 14.3 µM
[13]
  TGI: 51.3 µM
[14]
  TGI: 28 µM

## COc1ccc2c(=O)cc(-c3ccc(OC)c(OC)c3OC)oc2c1
[2]
  TGI: > 100 µM
[3]
  TGI: > 85.7 µM
[4]
  TGI: > 100 µM
[15]
  TGI: > 100 µM
[5]
  TGI: > 100 µM
[16]
  TGI: > 100 µM
[17]
  TGI: > 31.6 µM
[6]
  TGI: > 100 µM
[7]
  TGI: > 100 µM
[8]
  TGI: > 100 µM
[18]
  TGI: > 100 µM
[19]
  TGI: > 92.6 µM
[9]
  TGI: > 100 µM
[10]
  TGI: > 100 µM
[20]
  TGI: > 100 µM
[11]
  TGI: > 100 µM
[12]
  TGI: > 100 µM
[13]
  TGI: > 100 µM
[14]
  TGI: > 100 µM

## COc1ccc2nc3c([N+](=O)[O-])ccc4c3c(c2c1)NCCN4CCN(C)C
[1]
  TGI: > 10 µM
[2]
  TGI: 1.79 µM
[3]
  TGI: 1.46 µM
[4]
  TGI: 0.697 µM
[15]
  TGI: 1.56 µM
[5]
  TGI: 1.88 µM
[16]
  TGI: 2.41 µM
[17]
  TGI: 4 µM
[7]
  TGI: 3.39 µM
[8]
  TGI: 3.25 µM
[18]
  TGI: 3.44 µM
[19]
  TGI: 1.57 µM
[9]
  TGI: 2.08 µM
[10]
  TGI: 3.49 µM
[11]
  TGI: 1.3 µM
[12]
  TGI: 1.71 µM
[13]
  TGI: 4.75 µM
[14]
  TGI: 1.86 µM

## CC1C2CC(CC2(C)O)C1(C)C (centres undefined)
[1]
  TGI: > 100 µM
[2]
  TGI: > 100 µM
[3]
  TGI: > 100 µM
[4]
  TGI: > 100 µM
[15]
  TGI: > 100 µM
[5]
  TGI: > 100 µM
[16]
  TGI: > 100 µM
[17]
  TGI: > 100 µM
[6]
  TGI: > 100 µM
[7]
  TGI: > 100 µM
[18]
  TGI: > 100 µM
[19]
  TGI: > 100 µM
[9]
  TGI: > 100 µM
[20]
  TGI: > 100 µM
[11]
  TGI: > 100 µM
[12]
  TGI: > 100 µM
[13]
  TGI: > 100 µM
[14]
  TGI: > 100 µM

## CC(C)(Oc1ccc(Cl)cc1)C(=O)N(C(=O)N1CCCCC1)c1ccccc1
[1]
  TGI: 47.3 µM
[2]
  TGI: 27.6 µM
[3]
  TGI: 41.2 µM
[15]
  TGI: 85.2 µM
[5]
  TGI: 25.5 µM
[16]
  TGI: 56.7 µM
[17]
  TGI: > 100 µM
[7]
  TGI: 30.4 µM
[8]
  TGI: 37.4 µM
[9]
  TGI: 24.2 µM
[10]
  TGI: > 100 µM
[11]
  TGI: 21.2 µM
[12]
  TGI: 25.3 µM
[14]
  TGI: 20 µM

## N#Cc1ccc(-c2nc3c(N)nc(-c4ccccc4)nc3o2)cc1
[1]
  TGI: > 100 µM
[2]
  TGI: > 100 µM
[3]
  TGI: > 100 µM
[4]
  TGI: > 100 µM
[5]
  TGI: 46.2 µM
[16]
  TGI: > 100 µM
[6]
  TGI: > 100 µM
[7]
  TGI: > 100 µM
[8]
  TGI: > 100 µM
[18]
  TGI: > 100 µM
[19]
  TGI: > 100 µM
[9]
  TGI: > 100 µM
[10]
  TGI: > 100 µM
[20]
  TGI: > 100 µM
[11]
  TGI: > 100 µM
[12]
  TGI: 22.3 µM
[13]
  TGI: > 100 µM
[14]
  TGI: > 100 µM

## CCCC1CC(=O)NC(=O)C1C(=O)OC(C)(C)C (centres undefined)
[1]
  TGI: > 100 µM
[2]
  TGI: > 100 µM
[3]
  TGI: > 100 µM
[4]
  TGI: > 100 µM
[15]
  TGI: > 100 µM
[5]
  TGI: > 100 µM
[16]
  TGI: > 100 µM
[6]
  TGI: > 100 µM
[7]
  TGI: > 100 µM
[8]
  TGI: > 100 µM
[18]
  TGI: > 100 µM
[19]
  TGI: > 100 µM
[9]
  TGI: > 100 µM
[10]
  TGI: > 100 µM
[20]
  TGI: > 100 µM
[11]
  TGI: > 100 µM
[13]
  TGI: > 100 µM
[14]
  TGI: > 100 µM

## C=C1C[C@@H]2O[C@H]3[C@H]4[C@@H](C[C@@H](C)[C@@H](OC(C)=O)[C@H]42)[C@@H](C)CO[C@@]3(C)[C@H](OC(=O)CCCCCCC)C[C@H]1O
[1]
  TGI: 40.4 µM
[2]
  TGI: 28.9 µM
[3]
  TGI: 31.5 µM
[4]
  TGI: 28.1 µM
[5]
  TGI: 27 µM
[16]
  TGI: 31.1 µM
[17]
  TGI: 38 µM
[6]
  TGI: 30.9 µM
[7]
  TGI: 32.9 µM
[8]
  TGI: 30.7 µM
[18]
  TGI: 32.9 µM
[19]
  TGI: 32.6 µM
[9]
  TGI: 28.8 µM
[10]
  TGI: 34.8 µM
[20]
  TGI: 34.4 µM
[11]
  TGI: 30.1 µM
[12]
  TGI: 40.5 µM
[13]
  TGI: 32.8 µM
[14]
  TGI: 28.7 µM
